From paper PMC11425263, “Otilonium Bromide Exhibits Potent Antifungal Effects by Blocking Ergosterol Plasma Membrane Localization and Triggering Cytotoxic Autophagy in Candida Albicans” (Advanced Science, 2024)

Biological target: T1, Sec31 (Candida albicans, UniProt Q5AAU3)
T1 construct: gene PGA63; full-length with N-terminal GFP tag, expressed in C. albicans, tested in whole cell lysate; COPII coat component
T1 sequence (Q5AAU3 1-1265): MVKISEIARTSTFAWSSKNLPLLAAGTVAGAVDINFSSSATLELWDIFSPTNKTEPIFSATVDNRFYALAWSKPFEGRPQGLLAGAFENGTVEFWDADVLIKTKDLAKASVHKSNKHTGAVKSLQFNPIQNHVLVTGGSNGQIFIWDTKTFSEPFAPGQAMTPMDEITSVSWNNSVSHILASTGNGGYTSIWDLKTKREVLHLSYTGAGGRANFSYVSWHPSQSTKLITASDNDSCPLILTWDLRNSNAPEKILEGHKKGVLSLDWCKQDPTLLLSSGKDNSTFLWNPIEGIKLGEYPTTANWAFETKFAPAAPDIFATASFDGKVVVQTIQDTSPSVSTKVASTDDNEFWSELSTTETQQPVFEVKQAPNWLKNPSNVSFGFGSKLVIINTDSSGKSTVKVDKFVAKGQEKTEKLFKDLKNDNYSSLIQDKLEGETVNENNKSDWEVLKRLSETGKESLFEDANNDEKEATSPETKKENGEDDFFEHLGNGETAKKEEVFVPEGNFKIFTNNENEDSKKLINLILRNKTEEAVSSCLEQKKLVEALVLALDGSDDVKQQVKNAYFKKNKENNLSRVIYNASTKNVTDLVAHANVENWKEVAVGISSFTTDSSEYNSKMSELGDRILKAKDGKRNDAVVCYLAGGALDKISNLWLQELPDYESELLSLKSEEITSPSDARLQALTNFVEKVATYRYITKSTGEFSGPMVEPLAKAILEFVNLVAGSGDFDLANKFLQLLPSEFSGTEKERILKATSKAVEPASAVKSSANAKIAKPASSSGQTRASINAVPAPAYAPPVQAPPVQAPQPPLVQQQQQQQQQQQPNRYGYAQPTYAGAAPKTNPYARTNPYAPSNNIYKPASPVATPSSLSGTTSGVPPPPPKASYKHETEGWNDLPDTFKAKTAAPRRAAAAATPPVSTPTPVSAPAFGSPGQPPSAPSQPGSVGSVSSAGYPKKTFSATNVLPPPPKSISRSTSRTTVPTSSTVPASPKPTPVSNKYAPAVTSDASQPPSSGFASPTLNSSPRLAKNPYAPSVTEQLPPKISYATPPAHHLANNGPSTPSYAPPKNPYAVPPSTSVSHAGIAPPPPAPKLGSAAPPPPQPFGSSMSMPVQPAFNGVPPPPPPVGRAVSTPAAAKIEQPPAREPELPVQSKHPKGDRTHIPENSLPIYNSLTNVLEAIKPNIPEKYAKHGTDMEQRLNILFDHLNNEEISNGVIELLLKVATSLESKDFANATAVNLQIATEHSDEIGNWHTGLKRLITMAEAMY
Experiment: DARTS, thermolysin protection, anti-GFP western blot
Assay type: biochemical
Details: GFP-Sec31 cell lysate; OTB 3.125 to 12.5 µg/mL, 1 h room temperature; thermolysin 15 min; beta-tubulin as control

For `CCCCCCCCOc1ccccc1C(=O)Nc1ccc(C(=O)OCC[N+](C)(CC)CC)cc1` [otilonium bromide], the “DARTS, thermolysin protection, anti-GFP western blot” value was “OTB effectively shielded Sec31 from degradation induced by thermolysin”.
